Assays:
Format in all cases: biochemical
[1] = biological target: T1, His6-Hsl (Drosophila Hsl) (Drosophila melanogaster, UniProt A4UZQ8); test: release of labelled fatty acid, scintillation counting; conditions: 0.45 mM substrate emulsified with PC/PI, 5% BSA, BTP buffer pH 7.5, 37°C, 60 min; labelled compound (14C-cholesteryl oleate tracer)
T1 construct: Hsl open reading frame from cDNA RE52776 in pcDNA4/HisMax C, N-terminal His6 tag kept, COS-7 cell extract
T1 sequence (A4UZQ8 2-881): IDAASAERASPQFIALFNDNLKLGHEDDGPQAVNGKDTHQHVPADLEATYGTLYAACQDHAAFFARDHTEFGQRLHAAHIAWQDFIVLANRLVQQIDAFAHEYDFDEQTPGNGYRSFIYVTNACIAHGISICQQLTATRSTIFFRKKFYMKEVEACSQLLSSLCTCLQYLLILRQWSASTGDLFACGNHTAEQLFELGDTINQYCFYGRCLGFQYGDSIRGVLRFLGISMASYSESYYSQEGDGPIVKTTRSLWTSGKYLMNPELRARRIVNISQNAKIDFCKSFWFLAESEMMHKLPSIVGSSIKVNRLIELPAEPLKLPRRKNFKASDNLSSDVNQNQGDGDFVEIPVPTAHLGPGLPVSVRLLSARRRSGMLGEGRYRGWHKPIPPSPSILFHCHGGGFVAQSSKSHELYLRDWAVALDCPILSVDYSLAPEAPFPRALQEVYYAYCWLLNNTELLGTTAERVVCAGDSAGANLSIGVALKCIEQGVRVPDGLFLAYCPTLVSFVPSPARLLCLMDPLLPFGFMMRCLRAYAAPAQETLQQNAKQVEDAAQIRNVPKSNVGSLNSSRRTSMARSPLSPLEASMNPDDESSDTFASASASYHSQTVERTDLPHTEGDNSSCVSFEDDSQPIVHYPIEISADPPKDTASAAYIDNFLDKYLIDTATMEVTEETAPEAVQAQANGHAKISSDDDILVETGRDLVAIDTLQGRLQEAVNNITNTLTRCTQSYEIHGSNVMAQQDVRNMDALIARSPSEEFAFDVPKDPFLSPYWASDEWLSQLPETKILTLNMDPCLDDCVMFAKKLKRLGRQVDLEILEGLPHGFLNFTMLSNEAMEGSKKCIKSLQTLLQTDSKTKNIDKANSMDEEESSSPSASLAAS

His6-MmHsl (murine Hsl) [2] = biological target: T2, His6-MmHsl (murine Hsl) (Mus musculus, UniProt P54310); test: as above; conditions: 0.45 mM substrate emulsified with PC/PI, 5% BSA, BTP buffer pH 7.5, 37°C, 60 min; labelled compound (14C-cholesteryl oleate tracer)
T2 construct: gene Lipe; N-terminal His6 tag kept, COS-7 cell extract; plasmid described previously (Lass et al., 2006)
T2 sequence (P54310 1-759): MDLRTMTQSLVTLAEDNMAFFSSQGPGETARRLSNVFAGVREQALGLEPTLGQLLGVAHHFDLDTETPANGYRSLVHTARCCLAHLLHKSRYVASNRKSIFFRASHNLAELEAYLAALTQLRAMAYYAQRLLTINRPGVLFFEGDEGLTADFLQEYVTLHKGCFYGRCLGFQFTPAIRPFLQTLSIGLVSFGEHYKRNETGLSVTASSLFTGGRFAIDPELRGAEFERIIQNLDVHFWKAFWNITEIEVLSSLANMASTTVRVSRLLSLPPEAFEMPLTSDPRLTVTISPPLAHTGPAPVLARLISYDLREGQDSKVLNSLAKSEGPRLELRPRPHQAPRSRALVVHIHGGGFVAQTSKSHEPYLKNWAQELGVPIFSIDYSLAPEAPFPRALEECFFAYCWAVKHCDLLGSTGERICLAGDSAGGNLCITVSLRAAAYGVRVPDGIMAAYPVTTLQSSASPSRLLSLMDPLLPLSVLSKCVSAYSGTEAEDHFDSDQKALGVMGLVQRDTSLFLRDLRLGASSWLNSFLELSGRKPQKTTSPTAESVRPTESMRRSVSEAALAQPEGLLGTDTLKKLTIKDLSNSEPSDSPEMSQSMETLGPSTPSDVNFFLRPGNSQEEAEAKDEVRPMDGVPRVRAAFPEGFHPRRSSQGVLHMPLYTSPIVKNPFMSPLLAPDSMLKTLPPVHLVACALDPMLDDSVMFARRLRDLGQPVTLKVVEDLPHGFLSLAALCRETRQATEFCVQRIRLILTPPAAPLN

[3] = biological target: T1, His6-Hsl (Drosophila Hsl); test: colorimetric free fatty acid release (NEFA kit); conditions: 0.3 mM substrate emulsified with PC/PI, 2% BSA, BTP buffer pH 7.5, 37°C, 30-60 min
His6-MmHsl (murine Hsl) [4] = biological target: T2, His6-MmHsl (murine Hsl); test: colorimetric free fatty acid release (NEFA kit); conditions: 0.3 mM substrate emulsified with PC/PI, 2% BSA, BTP buffer pH 7.5, 37°C, 30-60 min

Row | SMILES | release of labelled fatty acid, scintillation counting [1] | release of labelled fatty acid, scintillation counting (His6-MmHsl (murine Hsl) [2]) | colorimetric free fatty acid release (NEFA kit) [3] | colorimetric free fatty acid release (NEFA kit) (His6-MmHsl (murine Hsl) [4])
1 | CCCCCCCC/C=C\CCCCCCCC(=O)O[C@H]1CC[C@@]2(C)C(=CC[C@H]3[C@@H]4CC[C@H]([C@H](C)CCCC(C)C)[C@@]4(C)CC[C@@H]32)C1 [CE 18:1, cholesteryl oleate] | Expression of fly His6-Hsl elevated cellular hydrolysis rates toward MG, DG, TG, and SE | Expression of His6-MmHsl increased cellular hydrolysis rates toward monoacylglycerol (MG), DG, TG, and SE |  | 
2 | CCCCCCCC/C=C\CCCCCCCC(=O)OCC(CO)OC(=O)CCCCCCC/C=C\CCCCCCCC (racemic) [DG 36:2, 1,2-dioleoyl-rac-glycerol] |  |  | Expression of fly His6-Hsl elevated cellular hydrolysis rates toward MG, DG, TG, and SE | Expression of His6-MmHsl increased cellular hydrolysis rates toward monoacylglycerol (MG), DG, TG, and SE

Reference: article PMC7880688, “Hormone-sensitive lipase couples intergenerational sterol metabolism to reproductive success” (eLife, 2021)
